Laboratory results reported in US6355799B1, “Substituted benzene compounds, process for their preparation, and herbicidal and defoliant compositions containing them” (ISK Americas Incorporated, priority 1997, dated 2002).

Key:
Assay type in all cases: in vivo
[1] = tested on: redroot pigweed (Amaranthus retroflexus, AMARE); test: Pre-emerge test, greenhouse herbicide activity screening; settings: pre-emerge, rated 14 days after application, 0 = no damage, 100 = complete death
How it was run: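 Rating: 0–100 visual injury, 14 DAA. Application: acetone, 187 l/ha, 15–1000 g ai/ha, flat-fan track sprayer with nozzle 40–45 cm above soil or canopy. Post-emerge runs used 0.25% v/v surfactant on 2–3 leaf plants.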

[2] = tested on: sicklepod (Cassia obtusifolia, CASOB); test: Post-emerge test, greenhouse herbicide activity screening; settings: phytotoxicity rating 0-100 (0 no damage, 100 complete death), 14 days after application
How it was run: (§1)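 Compounds in acetone were track-sprayed at 15–1000 g ai/ha: pre-emergence onto soil sown the previous day, then top-watered to incorporate and later bottom-watered; post-emergence onto 2–3 leaf plants with 0.25% v/v surfactant, bottom-watered only. Ratings on a 0–100 phytotoxicity scale were taken at day 14.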

[3] = tested on: velvetleaf (Abutilon theophrasti, ABUTH); test: as above; settings: phytotoxicity rating 0-100 (0 no damage, 100 complete death), 14 days after application
How it was run: as §1

[4] = tested on: large crabgrass (Digitaria sanguinalis, DIGSA); test: as above; settings: phytotoxicity rating 0-100 (0 no damage, 100 complete death), 14 days after application
How it was run: as §1

[5] = tested on: lambsquarters (Chenopodium album, CHEAL); test: as above; settings: phytotoxicity rating 0-100 (0 no damage, 100 complete death), 14 days after application
How it was run: as §1

[6] = tested on: ivyleaf morningglory (Ipomoea hederacea, IPOHE); test: as above; settings: phytotoxicity rating 0-100 (0 no damage, 100 complete death), 14 days after application
How it was run: as §1

[7] = tested on: green foxtail (Setaria viridis, SETVI); test: as above; settings: phytotoxicity rating 0-100 (0 no damage, 100 complete death), 14 days after application
How it was run: as §1

[8] = tested on: barnyardgrass (Echinochloa crus-galli, ECHCG); test: as above; settings: phytotoxicity rating 0-100 (0 no damage, 100 complete death), 14 days after application
How it was run: as §1

[9] = tested on: common ragweed (Ambrosia artemisizfolia L., AMBEL); test: as above; settings: phytotoxicity rating 0-100 (0 no damage, 100 complete death), 14 days after application
How it was run: as §1

[10] = tested on: redroot pigweed (Amaranthus retroflexus, AMARE); test: as above; settings: phytotoxicity rating 0-100 (0 no damage, 100 complete death), 14 days after application
How it was run: as §1

[11] = tested on: sicklepod (Cassia obtusifolia, CASOB); test: Pre-emerge test, greenhouse herbicide activity screening; settings: pre-emerge, rated 14 days after application, 0 = no damage, 100 = complete death
How it was run: (§2)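 Compounds in acetone were track-sprayed at 15-1000 g ai/ha (187 l/ha) on sandy loam pots: pre-emerge one day after seeding, post-emerge at 2-3 leaf stage with 0.25% v/v non-ionic surfactant. Phytotoxicity was rated 14 days later on a 0 (no damage) to 100 (complete death) scale.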

[12] = tested on: velvetleaf (Abutilon theophrasti, ABUTH); test: as above; settings: pre-emerge, rated 14 days after application, 0 = no damage, 100 = complete death
How it was run: as §2

[13] = tested on: large crabgrass (Digitaria sanguinalis, DIGSA); test: as above; settings: pre-emerge, rated 14 days after application, 0 = no damage, 100 = complete death
How it was run: as §2

[14] = tested on: lambsquarters (Chenopodium album, CHEAL); test: as above; settings: pre-emerge, rated 14 days after application, 0 = no damage, 100 = complete death
How it was run: as §2

[15] = tested on: ivyleaf morningglory (Ipomoea hederacea, IPOHE); test: as above; settings: pre-emerge, rated 14 days after application, 0 = no damage, 100 = complete death
How it was run: as §2

[16] = tested on: green foxtail (Setaria viridis, SETVI); test: as above; settings: pre-emerge, rated 14 days after application, 0 = no damage, 100 = complete death
How it was run: as §2

[17] = tested on: barnyardgrass (Echinochloa crus-galli, ECHCG); test: as above; settings: pre-emerge, rated 14 days after application, 0 = no damage, 100 = complete death
How it was run: as §2

[18] = tested on: common ragweed (Ambrosia artemisizfolia L., AMBEL); test: as above; settings: pre-emerge, rated 14 days after application, 0 = no damage, 100 = complete death
How it was run: as §2

[19] = tested on: johnsongrass (Sorghum halepense, SORHA); test: as above; settings: pre-emerge, rated 14 days after application, 0 = no damage, 100 = complete death
How it was run: as §2

[20] = tested on: field corn (Zea mays L., var. Dekalb 535, CORN); test: Post-emerge test, crop safety; settings: phytotoxicity rating 0-100 (0 no damage, 100 complete death), 14 days after application
How it was run: as §2

[21] = tested on: upland rice (Oryza sp., var. Tebonnet, RICE); test: Post-emerge test, crop safety; settings: phytotoxicity rating 0-100 (0 no damage, 100 complete death), 14 days after application
How it was run: as §2

[22] = tested on: field corn (Zea mays L., var. Dekalb 535, CORN); test: Pre-emerge test, crop safety; settings: pre-emerge, rated 14 days after application, 0 = no damage, 100 = complete death
How it was run: (§3)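 Compounds in acetone were track-sprayed at 187 l/ha, 15–1000 g ai/ha, onto sandy loam pots. Pre-emerge seeds were sown one day before spraying, with surface watering afterwards. Post-emerge plants were at the 2–3 leaf stage and sprayed with 0.25% v/v non-ionic surfactant. Injury was rated 0–100 at 14 days.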

[23] = tested on: upland rice (Oryza sp., var. Tebonnet, RICE); test: Pre-emerge test, crop safety; settings: pre-emerge, rated 14 days after application, 0 = no damage, 100 = complete death
How it was run: as §3

Cn1c(C(F)(F)F)cc(=O)n(-c2c(N)cc(OC(F)F)cc2F)c1=O [Compound 1-51]
Pre-emerge Herbicidal Activity AMARE (phytotoxicity rating, scale 0-100) ([1]; 63 g ai/ha): 90 | Pre-emerge Herbicidal Activity AMARE (phytotoxicity rating, scale 0-100) ([1]; 250 g ai/ha): 100 | Post-emerge Herbicidal Activity CASOB ([2]; 63 g ai/ha): 40 | Post-emerge Herbicidal Activity CASOB ([2]; 250 g ai/ha): 60 | Post-emerge Herbicidal Activity ABUTH ([3]; 63 g ai/ha): 60 | Post-emerge Herbicidal Activity ABUTH ([3]; 250 g ai/ha): 80 | Post-emerge Herbicidal Activity DIGSA ([4]; 63 g ai/ha): 10 | Post-emerge Herbicidal Activity DIGSA ([4]; 250 g ai/ha): 20 | Post-emerge Herbicidal Activity CHEAL ([5]; 63 g ai/ha): 30 | Post-emerge Herbicidal Activity CHEAL ([5]; 250 g ai/ha): 95 | Post-emerge Herbicidal Activity IPOHE ([6]; 63 g ai/ha): 40 | Post-emerge Herbicidal Activity IPOHE ([6]; 250 g ai/ha): 95 | Post-emerge Herbicidal Activity SETVI ([7]; 63 g ai/ha): 0 | Post-emerge Herbicidal Activity SETVI ([7]; 250 g ai/ha): 30 | Post-emerge Herbicidal Activity ECHCG ([8]; 63 g ai/ha): 0 | Post-emerge Herbicidal Activity ECHCG ([8]; 250 g ai/ha): 10 | Post-emerge Herbicidal Activity AMBEL ([9]; 63 g ai/ha): 70 | Post-emerge Herbicidal Activity AMBEL ([9]; 250 g ai/ha): 90 | Post-emerge Herbicidal Activity AMARE ([10]; 63 g ai/ha): 70 | Post-emerge Herbicidal Activity AMARE ([10]; 250 g ai/ha): 70 | Pre-emerge Herbicidal Activity CASOB (phytotoxicity rating, scale 0-100) ([11]; 63 g ai/ha): 0 | Pre-emerge Herbicidal Activity CASOB (phytotoxicity rating, scale 0-100) ([11]; 250 g ai/ha): 30 | Pre-emerge Herbicidal Activity ABUTH (phytotoxicity rating, scale 0-100) ([12]; 63 g ai/ha): 90 | Pre-emerge Herbicidal Activity ABUTH (phytotoxicity rating, scale 0-100) ([12]; 250 g ai/ha): 100 | Pre-emerge Herbicidal Activity DIGSA (phytotoxicity rating, scale 0-100) ([13]; 63 g ai/ha): 20 | Pre-emerge Herbicidal Activity DIGSA (phytotoxicity rating, scale 0-100) ([13]; 250 g ai/ha): 90 | Pre-emerge Herbicidal Activity CHEAL (phytotoxicity rating, scale 0-100) ([14]; 63 g ai/ha): 90 | Pre-emerge Herbicidal Activity CHEAL (phytotoxicity rating, scale 0-100) ([14]; 250 g ai/ha): 100 | Pre-emerge Herbicidal Activity IPOHE (phytotoxicity rating, scale 0-100) ([15]; 63 g ai/ha): 50 | Pre-emerge Herbicidal Activity IPOHE (phytotoxicity rating, scale 0-100) ([15]; 250 g ai/ha): 80 | Pre-emerge Herbicidal Activity SETVI (phytotoxicity rating, scale 0-100) ([16]; 63 g ai/ha): 30 | Pre-emerge Herbicidal Activity SETVI (phytotoxicity rating, scale 0-100) ([16]; 250 g ai/ha): 90 | Pre-emerge Herbicidal Activity ECHCG (phytotoxicity rating, scale 0-100) ([17]; 63 g ai/ha): 0 | Pre-emerge Herbicidal Activity ECHCG (phytotoxicity rating, scale 0-100) ([17]; 250 g ai/ha): 50 | Pre-emerge Herbicidal Activity AMBEL (phytotoxicity rating, scale 0-100) ([18]; 63 g ai/ha): 30 | Pre-emerge Herbicidal Activity AMBEL (phytotoxicity rating, scale 0-100) ([18]; 250 g ai/ha): 80 | Pre-emerge Herbicidal Activity SORHA (phytotoxicity rating, scale 0-100) ([19]; 63 g ai/ha): 10 | Pre-emerge Herbicidal Activity SORHA (phytotoxicity rating, scale 0-100) ([19]; 250 g ai/ha): 60 | Post-emerge Herbicidal Activity CORN (crop damage) ([20]; 63 g ai/ha): 10 | Post-emerge Herbicidal Activity CORN (crop damage) ([20]; 250 g ai/ha): 20 | Post-emerge Herbicidal Activity RICE (crop damage) ([21]; 63 g ai/ha): 10 | Post-emerge Herbicidal Activity RICE (crop damage) ([21]; 250 g ai/ha): 30 | Pre-emerge crop damage CORN (phytotoxicity rating, scale 0-100) ([22]; 63 g ai/ha): 0 | Pre-emerge crop damage CORN (phytotoxicity rating, scale 0-100) ([22]; 250 g ai/ha): 70 | Pre-emerge crop damage RICE (phytotoxicity rating, scale 0-100) ([23]; 63 g ai/ha): 10 | Pre-emerge crop damage RICE (phytotoxicity rating, scale 0-100) ([23]; 250 g ai/ha): 70
